From publication PMC6494957 (Frontiers in Microbiology, 2019)
pIC50: −log10 of the molar value. Where two headings read alike, the source gives them in different places.

Key:
P. aeruginosa PA01 = experiment: MIC broth microdilution and checkerboard; assay type: cell-based, Pseudomonas aeruginosa; settings: for DRI EDTA:ROB: DRI of the labelled component; for MIC: Pseudomonas aeruginosa; for MIC in combination EDTA:ROB: concentration of the labelled component
Protocol: (§1) The MIC for ampicillin or gentamicin against each isolate was determined for each test to serve as an internal quality control. The MICs of isolates were determined by visual reading and using an EnSpire Multimode Plate Reader 2300 atA600nm.
(§2) Briefly, antimicrobial stock solutions for robenidine and PMBN were prepared at a concentration of 12.8 mg/ml in DMSO. […] A 1 μl aliquot of the first compound from each combination was dispensed along the abscissa (from row A to G) of the 96-well microplate, while the second compound was dispensed along the ordinate (from column 12 to column 3) using an electronic multichannel pipette followed by 89 μl of LB broth. Each well of the plate was inoculated with an aliquot of 10 μl bacterial suspension at a concentration of 1-5 × 10^6 colony forming units (CFU) per ml. Subsequently, the plate was incubated at 37°C for 24 h. The fractional inhibitory concentration index (FICI) described the results of the combinations, and was calculated utilizing the following formula:
(§3) DRI = MIC of drug alone/MIC of drug in combination

[1] = system: P. mirabilis (n = 21) clinical isolates from otitis externa cases in dogs; experiment: MIC/MBC and checkerboard, canine otitis externa isolates; assay type: cell-based, Proteus mirabilis; settings: for MIC50 / MIC90: Proteus mirabilis; for MIC50, in combination of EDTA and ROB / MIC90, in combination of EDTA and ROB / MIC range, in combination of EDTA and ROB: concentration of the labelled component
Excerpt: (§4) Escherichia coli ATCC 25922, E. coli ATCC 11229, P. aeruginosa ATCC 27853, P. aeruginosa PA01, Pseudomonas putida ATCC 17428, P. mirabilis ATCC 43071, K. pneumoniae ATCC 13883, A. baumannii ATCC 19606, and A. baumannii ATCC 12457 were used for preliminary susceptibility testing and combination experiments. S. aureus ATCC 29213 and S. pneumoniae ATCC 49619 were used as internal quality controls. A variety of bacterial organisms from both human and canine infections were investigated in this study (n = 119 isolates in total). Twenty-eight clinical Acinetobacter spp. isolates were obtained from cases of human skin and soft tissue infections, including 18 Acinetobacter baumannii and 10 A. calcoaceticus, kindly provided by a person (Institute of Medical and Veterinary Science, South Australia). […] Ninety-one clinical isolates were obtained from cases of canine otitis externa, including seven methicillin-susceptible S. pseudintermedius (MSSP), 13 multidrug- and methicillin-resistant S. pseudintermedius (MRSP) ([Saputra et al., 2017]), 20 beta-haemolytic Streptococcus spp., 30 P. aeruginosa (10 of them resistant to gentamicin and 21 P. mirabilis isolates). These isolates were obtained from the bacterial collection of the national survey of antimicrobial resistance in animals conducted in Australia. Swab samples from dogs with signs of otitis externa were collected by veterinarians and submitted to government, private or university diagnostic laboratories throughout Australia. After routine bacterial identification and the removal of confidential information, the participating veterinary diagnostic laboratories submitted the bacteria and their clinical information to PC2 Laboratories, Australian Centre for Antimicrobial Resistance Ecology, School of Animal and Veterinary Sciences, University of Adelaide, Roseworthy Campus, Roseworthy, SA, Australia, for further study. Thus, animal ethics approval was not required in this study. These organisms were identified to species level using biochemical testing and MALDI-TOF mass spectrometry (Bruker, Preston, VIC, Australia).
as §1
(§5) Briefly, 10 μl aliquots from each duplicate well from the MIC assays (starting from the MIC for each compound) were inoculated onto a sheep blood agar (SBA) plate and incubated at 37°C.
as §2, §3

[2] = system: S. pseudintermedius (n = 20) clinical isolates from otitis externa cases in dogs; experiment: as above; assay type: cell-based, Staphylococcus pseudintermedius; settings: for MIC50 / MIC90: Staphylococcus pseudintermedius; for MIC50, in combination of EDTA and ROB / MIC90, in combination of EDTA and ROB / MIC range, in combination of EDTA and ROB: concentration of the labelled component
Excerpt: as §4, §1, §5, §2, §3

[3] = system: preformed biofilms of two clinical isolates of S. pseudintermedius; experiment: Antibiofilm susceptibility (MBEC device) and biofilm checkerboard; assay type: cell-based, Staphylococcus pseudintermedius
Protocol: Briefly, biofilms of P. aeruginosa PA01, two clinical isolates of P. aeruginosa isolates and two clinical isolates of S. pseudintermedius were formed by inoculating 150 μl of 10^7 CFU/ml of each bacterial suspension in the MBEC^TM device. The inoculated device was aerobically incubated on an orbital shaker at 37°C (OM11, Ratek Instruments Pty Ltd., Australia) for 24 h to produce equivalent (Uniform) biofilms on all pegs. […] Following antimicrobial challenge, the biofilms were rinsed twice with phosphate buffered saline (pH = 7) and disrupted via sonication (Soniclean, Model 160TD, Australia) for 10 min into the recovery medium. Viable cell counts were determined for recovered cells (colony-forming units per peg) after preparing a serial dilution and plating 10 μl in duplicates of each dilution onto plate count agar. Viable counts were then expressed as a percentage of the mean CFU of growth controls. MBEC was defined as the lowest concentration of antimicrobial agent that eradicates the biofilms recovered from the antimicrobial challenge.
Briefly, the MBEC^TM High-throughput assay system (MBEC^TM BioProducts, Innovotech, Canada) was used for the preparation of Gram-positive and Gram-negative biofilm producing bacteria as described above for antibiofilm susceptibility testing. […] Subsequently, the plate was incubated at 37°C for 24 h.

HaCaT cell line = experiment: In vitro cytotoxicity, WST-1; assay type: cell-based; settings: Homo sapiens, 10% FBS, read-out: IC50, single agent
Protocol: Cells were maintained in Dulbecco’s modified Eagle’s medium (DMEM) with 10% fetal bovine serum (FBS) and 1% PenStrep (100 U/mL Penicillin and 100 μg/mL Streptomycin) at 37°C with 5% CO2. Cells were serially passaged at ∼80% confluence ∼ every 4 days. Assays were performed in duplicate in 96 well plates seeded with ∼25,000 cells per well. […] Briefly, the antimicrobials were prepared by performing a twofold serial dilution at 100× of tested concentration in DMSO. Subsequently, a 1 μl aliquot of each concentration was transferred to a sterile 96-well plate containing fresh DMEM with either 10% FBS. After mixing four times, the media aliquots with different concentrations of antimicrobial were transferred to each well of the 96-well plate seeded with cells, using wells containing 1–2% DMSO only as control. To determine the effect of FBS on the cytotoxicity of each compound, DMEM with 40% FBS containing different concentrations of antimicrobial was prepared as described above. After 24 h of exposure, WST-1 reagent (Cell Proliferation Assay reagent, Roche) at a concentration of 10% was added to each well. Absorbance at A450 nm on a Multiskan Ascent 354 Spectrophotometer (Labsystems) was measured after 1 h of incubation. The IC50 value was determined for each compound against each cell line via non-linear regression (three parameters) using GraphPad Prism v6 software.

[4] = canine otitis externa, read-out: MIC50, single drug
[5] = canine otitis externa, read-out: MIC90, single drug
[6] = read-out: MIC50, single drug (mM in parentheses)
[7] = read-out: MIC90, single drug (mM in parentheses)

SMILES	DRI EDTA:ROB (P. aeruginosa PA01)	MIC (P. aeruginosa PA01; read-out: MIC, single drug) [µg/mL]	MIC in combination EDTA:ROB (P. aeruginosa PA01) [µg/mL]	MIC50 [1, 4] [µg/mL]	MIC90 [1, 5] [µg/mL]	MIC range, single drug ([1]; canine otitis externa) [µg/mL]	MIC50, in combination of EDTA and ROB [1] [µg/mL]	MIC90, in combination of EDTA and ROB [1] [µg/mL]	MIC range, in combination of EDTA and ROB [1] [µg/mL]	MIC50 [2, 4] [µg/mL]	MIC90 [2, 5] [µg/mL]	MIC range, single drug ([2]; canine otitis externa) [µg/mL]	MIC50, in combination of EDTA and ROB [2] [µg/mL]	MIC90, in combination of EDTA and ROB [2] [µg/mL]	MIC range, in combination of EDTA and ROB [2] [µg/mL]	pIC50 (HaCaT cell line)	IC50 (HaCaT cell line) [µg/mL]	further results
O=C(O)CN(CCN(CC(=O)O)CC(=O)O)CC(=O)O [EDTA, ethylenediaminetetraacetic acid]	2	1900	950	380	750	190 to 750	380	380	190 to 380	190	190	95 to 380	95	95	95	2.42		MIC in combination EDTA:ROB (mM in parentheses) (P. aeruginosa PA01; EDTA component): 2.5 mM; MIC (P. aeruginosa PA01; read-out: MIC, single drug (mM in parentheses)): 5 mM; MBC/MIC row, EDTA in combination [1]: 750 µg/mL; MBC/MIC row, EDTA in combination (mM in parentheses) [1]: 2 mM; MIC range, single drug (mM in parentheses) [1]: 0.5 to 2 mM; MIC50, in combination of EDTA and ROB (mM in parentheses) ([1]; EDTA component): 1 mM; MIC90, in combination of EDTA and ROB (mM in parentheses) ([1]; EDTA component): 1 mM; MIC range, in combination of EDTA and ROB (mM in parentheses) ([1]; EDTA component): 0.5 to 1 mM; MIC50 [1, 6]: 1 mM; MIC90 [1, 7]: 2 mM; MBC/MIC row, EDTA in combination [2]: 750 µg/mL; MBC/MIC row, EDTA in combination (mM in parentheses) [2]: 2 mM; MIC range, single drug (mM in parentheses) [2]: 0.25 to 1 mM; MIC50, in combination of EDTA and ROB (mM in parentheses) ([2]; EDTA component): 0.25 mM; MIC90, in combination of EDTA and ROB (mM in parentheses) ([2]; EDTA component): 0.25 mM; MIC range, in combination of EDTA and ROB (mM in parentheses) ([2]; EDTA component): 0.25 mM; MIC50 [2, 6]: 0.5 mM; MIC90 [2, 7]: 0.5 mM; concentration with significant disruption of 24 h preformed biofilms ([3]; Gram-positive (S. pseudintermedius) biofilms, vs growth control): 1 mM
N=C(N/N=C/c1ccc(Cl)cc1)N/N=C/c1ccc(Cl)cc1 [ROB, robenidine]	256	> 256	1.25	> 256	> 256	>256	0.125	0.5	0.125 to 4	2	2	1 to 4	1	1	0.25 to 2		14	MBC/MIC, ROB in combination with EDTA [1]: ≥2; MBC/MIC, ROB in combination with EDTA [2]: 2; MBC/MIC, single drug ([2]; footnote for BS not shown): 1.5; antibiofilm activity ([3]; S. pseudintermedius biofilms, up to 128 μg/ml, 24 h): did not show any antibiofilm activity
